This passage reports IC50 and microsomal CLint results from patent publication US9850247B2 (Almac Discovery Limited, priority 2013, dated 2017).

Molecules are shown by their SMILES.

One data set concerns the target T1, Wee-1 kinase (Homo sapiens, UniProt P30291).
T1 construct: purchased Invitrogen PV3817
Kind of data set: Measurement of Wee-1 kinase activity (ADP-Glo luminescent kit). It is filed as biochemical. The gist of the method:
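ADP-Glo luminescence reads ADP made over 1 h at RT, after an aliquot of 30 μM ATP and 2.0 μg/mL poly(Lys,Tyr 4:1) substrate. Before that, the kinase sat 30 min with inhibitor in Tris-HCl/MgCl2 buffer with BSA and DTT. IC50 came from regression of percent inhibition.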
(In ADP-Glo the light output rises with the ADP produced.)

Data set [1] is described as follows: CLint estimates using human liver microsomes (Method 4). The note with it: pH 7.4, 1 μM compound, read-out: Mics - CLint (HLM CLint). It is filed as in vitro ADME. The procedure: Method 4: Determination of CLint Estimates Using Human liver microsomes Test compounds (final concentration=1 μM; final DMSO concentration=0.1%) were incubated in 0.1 M phosphate buffer pH 7.4 with human liver microsomes (0.5 mg of protein/mL) at 37° C. Reactions were started by addition of NADPH in 0.1 M phosphate buffer pH 7.4 (final concentration 1 mM). 40 μL aliquots were removed at 2, 5, 10, 15, 20, 30, 40 and 50 min. Reactions were quenched in 80 μL of ice-cold methanol. Samples were subsequently frozen overnight then centrifuged at 3500 rpm for 20 min at 4° C. The supernatants were removed and transferred into analytical plates and analysed by LC/MS/MS. LC/MS/MS Method: All samples were analysed on a Waters Acquity I-Class coupled to a Waters Xevo TQD mass spectrometer. A Waters BEH C18 2.1×50 mm 1.7 μm column was used and mobile phases were water and methanol containing 0.1% formic acid as modifier. Analysis was by multiple reaction monitoring and conditions were optimised for each test compound. Data Analyses: From a plot of 1n peak area against time, the gradient of the line is determined. Subsequently, half-life and intrinsic clearance are calculated using the following equations. [formula] [formula] [formula] where V=Incubation volume (μL)/number of cells Method 5: Determination of Kinetic Solubility (in PBS Buffer)

T1 sequence (P30291 whole entry): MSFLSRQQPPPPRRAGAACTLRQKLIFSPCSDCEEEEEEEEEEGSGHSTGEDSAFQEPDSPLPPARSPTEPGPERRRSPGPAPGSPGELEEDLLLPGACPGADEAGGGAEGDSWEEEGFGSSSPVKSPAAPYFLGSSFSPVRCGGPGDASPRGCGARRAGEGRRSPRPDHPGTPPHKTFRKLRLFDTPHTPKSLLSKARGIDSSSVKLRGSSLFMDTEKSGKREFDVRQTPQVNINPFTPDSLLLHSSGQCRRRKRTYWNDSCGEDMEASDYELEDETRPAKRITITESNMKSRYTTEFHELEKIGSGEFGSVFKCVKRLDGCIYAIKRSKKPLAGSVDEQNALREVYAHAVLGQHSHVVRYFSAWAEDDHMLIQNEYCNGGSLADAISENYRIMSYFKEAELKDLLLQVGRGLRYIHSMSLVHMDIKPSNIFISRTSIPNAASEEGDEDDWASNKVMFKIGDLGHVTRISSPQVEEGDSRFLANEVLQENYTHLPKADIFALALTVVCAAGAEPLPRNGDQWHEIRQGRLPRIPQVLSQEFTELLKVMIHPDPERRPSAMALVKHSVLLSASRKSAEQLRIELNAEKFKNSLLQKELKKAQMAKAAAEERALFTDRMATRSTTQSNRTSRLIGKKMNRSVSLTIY

In general, IC50 refers to the concentration at which inhibition is half-maximal. Regarding `Cc1cc(Nc2ncc3c(n2)N(C)CN(c2ccccc2Cl)C3=O)ccc1N1C[C@@H]2C[C@H]1CN2` [Example 109, 7-((4-((1S,4S)-2,5-diazabicyclo[2.2.1]heptan-2-yl)-3-methylphenyl)amino)-3-(2-chlorophenyl)-1-methyl-2,3-dihydropyrimido[4,5-d]pyrimidin-4(1H)-one], the IC50 on Wee-1 kinase was 10 to 100 nM. Besides, in data set [1], the microsomal CLint at 1 μM was at most 15 µL/min/mg.

For `CN1CN(c2c(Cl)cccc2Cl)C(=O)c2cnc(Nc3ccc(N4CCOCC4)cc3)nc21` [Example 41, 3-(2,6-dichlorophenyl)-1-methyl-7-((4-morpholinophenyl)amino)-2,3-dihydropyrimido[4,5-d]pyrimidin-4(1H)-one], the IC50 at Wee-1 kinase lay in the range of 10 to 100 nM. In addition, the microsomal CLint at 1 μM in data set [1] was 15 to 50 µL/min/mg.

Take `CNCc1cc(Nc2ncc3c(n2)N(C)CN(c2c(Cl)cccc2Cl)C3=O)ccc1-c1cccnc1` [Example 156, 3-(2,6-dichlorophenyl)-1-methyl-7-((3-((methylamino)methyl)-4-(pyridin-3-yl)phenyl)amino)-2,3-dihydropyrimido[4,5-d]pyrimidin-4(1H)-one]: the IC50 at Wee-1 kinase is 10 to 100 nM. The microsomal CLint at 1 μM in data set [1] was 15 to 50 µL/min/mg.

For `CN1CN(c2ccccc2Cl)C(=O)c2cnc(Nc3ccc(N4CC5CCC(C4)N5C)c(CO)c3)nc21` [Example 97, 3-(2-chlorophenyl)-7-((3-(hydroxymethyl)-4-(8-methyl-3,8-diazabicyclo[3.2.1]octan-3-yl)phenyl)amino)-1-methyl-2,3-dihydropyrimido[4,5-d]pyrimidin-4(1H)-one], the concentration for half-maximal inhibition (IC50) on Wee-1 kinase was 10 to 100 nM. Moreover, in data set [1], the microsomal CLint at 1 μM is at most 15 µL/min/mg.

For `CNCc1cc(Nc2ncc3c(n2)N(C)CN(c2c(Cl)cccc2Cl)C3=O)ccc1OC` [Example 159, 3-(2,6-dichlorophenyl)-7-((4-methoxy-3-((methylamino)methyl)phenyl)amino)-1-methyl-2,3-dihydropyrimido[4,5-d]pyrimidin-4(1H)-one], the IC50 at Wee-1 kinase fell in the range of 10 to 100 nM. Besides, the microsomal CLint at 1 μM in data set [1] was at most 15 µL/min/mg.

Consider `CNCc1cc(Nc2ncc3c(n2)N(C)CN(c2c(Cl)cccc2Cl)C3=O)ccc1N1CCCCC1` [Example 136, 3-(2,6-dichlorophenyl)-1-methyl-7-((3-((methylamino)methyl)-4-(piperidin-1-yl)phenyl)amino)-2,3-dihydropyrimido[4,5-d]pyrimidin-4(1H)-one], for which the IC50 on Wee-1 kinase lay within 10 to 100 nM. In data set [1], the microsomal CLint at 1 μM was at least 50 µL/min/mg.

Regarding `C[C@@H]1CN(c2ccc(Nc3ncc4c(n3)N(C)CN(c3c(Cl)cccc3Cl)C4=O)cc2C(F)F)CCN1` [Example 139, (R)-3-(2,6-dichlorophenyl)-7-((3-(difluoromethyl)-4-(3-methylpiperazin-1-yl)phenyl)amino)-1-methyl-2,3-dihydropyrimido[4,5-d]pyrimidin-4(1H)-one], on Wee-1 kinase, the half-inhibitory concentration (IC50) is 10 to 100 nM. The microsomal CLint at 1 μM in data set [1] is 15 to 50 µL/min/mg.

On to `CN1CN(c2c(Cl)cccc2Cl)C(=O)c2cnc(Nc3ccc(N4C[C@@H]5C[C@H]4CN5C)cc3)nc21` [Example 44, 3-(2,6-dichlorophenyl)-1-methyl-7-((4-((1S,4S)-5-methyl-2,5-diazabicyclo[2.2.1]heptan-2-yl)phenyl)amino)-2,3-dihydropyrimido[4,5-d]pyrimidin-4(1H)-one], for which the IC50 on Wee-1 kinase was in the range of 10 to 100 nM. The microsomal CLint at 1 μM in data set [1] is at most 15 µL/min/mg.

As for `C[C@@H]1CN(c2ccc(Nc3ncc4c(n3)N(C)CN(c3c(Cl)cccc3Cl)C4=O)cc2)[C@H](C)CN1` [Example 79, 3-(2,6-dichlorophenyl)-7-((4-((2R,5R)-2,5-dimethylpiperazin-1-yl)phenyl)amino)-1-methyl-2,3-dihydropyrimido[4,5-d]pyrimidin-4(1H)-one], the 50% inhibitory concentration (IC50) on Wee-1 kinase fell in the range of 10 to 100 nM. Also, the microsomal CLint at 1 μM in data set [1] was 15 to 50 µL/min/mg.

For the molecule `C[C@@H]1CN(c2ccc(Nc3ncc4c(n3)N(C)CN(c3c(Cl)cccc3Cl)C4=O)cc2OC(F)F)CCN1` [Example 132, (R)-3-(2,6-dichlorophenyl)-7-((3-(difluoromethoxy)-4-(3-methylpiperazin-1-yl)phenyl)amino)-1-methyl-2,3-dihydropyrimido[4,5-d]pyrimidin-4(1H)-one], the concentration for half-maximal inhibition (IC50) at Wee-1 kinase is 10 to 100 nM. In addition, the microsomal CLint at 1 μM in data set [1] is at most 15 µL/min/mg.
